In patent US20100210682A1, “Repeated Dosing of TRPV1 Antagonists” (ABBOTT LABORATORIES, priority 2009, published 2010):

Assays:
[1] = tested on: inflammatory thermal hyperalgesia induced by intraplantar administration of CFA; assay: Inflammatory pain model in rats (CFA, thermal hyperalgesia); assay type: in vivo; conditions: po; rat, p.o., acute dosing; read-out: ED50, reversal of inflammatory thermal hyperalgesia induced by CFA
Procedure: The response to acute thermal stimulation was determined using a commercially available paw thermal stimulator (UARDG, University of California, San Diego, Calif.). Rats were placed individually in Plexiglass cubicles mounted on a glass surface maintained at 30° C., and allowed a 30 min habituation period. A thermal stimulus, in the form of radiant heat emitted from a focused projection bulb, was then applied to the plantar surface of each hind paw. In each test session, each rat was tested in three sequential trials at approximately 5 min intervals. Paw withdrawal latencies (PWLs) were calculated as the mean of the two shortest latencies. An assay cut-off was set at 20.5 s. Unilateral inflammation was induced by injecting 150 μL of a 50% solution of complete Freund's adjuvant (CFA) (Sigma, St. Louis, Mo.) in physiological saline into the plantar surface of the right hind paw of the rat. The hyperalgesia to thermal stimulation was determined 2 days following CFA injection using the same apparatus as described above for the noxious acute thermal assay. Compound A was dissolved in 100% polyethylene glycol (PEG 400) for oral administration in a 2 mL/kg injection volume. Compounds B, C, and D were dissolved in 10% ethanol, 20% Tween 80 and 70% polyethylene glycol-400 for oral administration in a 2 mL/kg injection volume. […]

[2] = tested on: capsaicin-induced flinching behaviors; assay: Capsaicin-induced acute pain (flinching) in rats; assay type: in vivo; conditions: rat, acute dosing, 2.5 μg capsaicin into hind paw
Procedure: Rats were placed in individual observation cages. Following an acclimation period of 30 min, the test compound was administered. Two hours later, 2.5 μg of capsaicin in a 10 μL solution of 10% ethanol/90% hydroxypropyl-b-cyclodextrin was injected subcutaneously into the dorsal aspect of the right hind paw. The observation cage was then suspended above mirrors in order to facilitate observation of the rat. […] The number of flinching behaviors of the injured paw was recorded during the 5 minutes observation period. Compound A was dissolved in 100% polyethylene glycol (PEG 400) for oral administration in a 2 mL/kg injection volume. Compounds B, C, and D were dissolved in 10% ethanol, 20% Tween 80 and 70% polyethylene glycol-400 for oral administration in a 2 mL/kg injection volume. All compounds were dosed orally (p.o.) 60 minutes before behavioral testing.

Compound: CC(C)(C)c1ccc2c(c1)CC[C@H]2NC(=O)Nc1cccc2[nH]ncc12 [Compound A, N-[(1R)-5-tert-butyl-2,3-dihydro-1H-inden-1-yl]-N′-1H-indazol-4-ylurea]
- ED50 [1]: 10 µmol/kg
- capsaicin-induced flinching behaviors [2]: dose-dependently prevented
